Assay results: the NIST ThermoML archive (doi:10.1021/je9005344)

Assay: xn = mol fraction of the nth substance listed
Conditions: 101 kPa, Liquid; for speed of sound: Pulse-echo method; for mass density: Vibrating tube method

COCCO [2-methoxyethan-1-ol] + CCCCCCCCCCO
Conditions	mass density, 293.15 K [kg/m3]	mass density, 298.15 K [kg/m3]	mass density, 303.15 K [kg/m3]	mass density, 308.15 K [kg/m3]	speed of sound, 293.15 K [m/s]	speed of sound, 298.15 K [m/s]	speed of sound, 303.15 K [m/s]	speed of sound, 308.15 K [m/s]
x1 = 0.0606	832.95	829.505	826.05	822.58	1393.1	1375.9	1359	1342.2
x1 = 0.1173	835.952	832.457	828.982	825.482	1389.5	1372.4	1355.4	1338.6
x1 = 0.1631	838.564	835.06	831.539	828.008	1386.6	1369.5	1352.6	1335.8
x1 = 0.1934	840.414	836.878	833.342	829.786	1384.7	1367.5	1350.6	1333.8
x1 = 0.251	844.262	840.695	837.111	833.512	1380.8	1363.7	1346.8	1330
x1 = 0.3025	847.887	844.28	840.662	837.024	1377.5	1360.4	1343.5	1326.7
x1 = 0.413	856.97	853.268	849.553	845.819	1370.2	1353.1	1336.2	1319.4
x1 = 0.517	867.321	863.518	859.697	855.861	1363.6	1346.6	1329.6	1312.8
x1 = 0.6285	880.912	876.98	873.028	869.056	1356.6	1339.6	1322.6	1305.7
x1 = 0.7087	892.252	888.913	884.854	880.773	1352.5	1335.3	1318.4	1301.5
x1 = 0.7965	909.015	904.836	900.644	896.427	1349.5	1332.3	1315.3	1298.3
x1 = 0.9382	944.534	940.097	935.63	931.137	1352.5	1335.3	1318.2	1301.1

COCCO [2-methoxyethan-1-ol] + CCCCCCCCO
Conditions	mass density, 293.15 K [kg/m3]	mass density, 298.15 K [kg/m3]	mass density, 303.15 K [kg/m3]	mass density, 308.15 K [kg/m3]	speed of sound, 293.15 K [m/s]	speed of sound, 298.15 K [m/s]	speed of sound, 303.15 K [m/s]	speed of sound, 308.15 K [m/s]
x1 = 0.0535	828.636	825.138	821.625	818.089	1362	1345	1328.2	1311.5
x1 = 0.1073	832.242	828.704	825.153	821.583	1359.3	1342.3	1325.5	1308.9
x1 = 0.1407	834.668	831.104	827.528	823.931	1357.9	1340.7	1323.9	1307.2
x1 = 0.2002	839.135	835.528	831.905	828.261	1354.9	1337.9	1321.1	1304.5
x1 = 0.2659	844.444	840.786	837.111	833.414	1351.9	1334.9	1318.1	1301.4
x1 = 0.2973	847.294	843.606	839.904	836.178	1350.5	1333.6	1316.8	1300.1
x1 = 0.3559	852.613	848.877	845.122	841.346	1348	1331.1	1314.2	1297.5
x1 = 0.5233	870.97	870.97	863.148	859.203	1342.3	1325.3	1308.5	1296.6
x1 = 0.6059	881.954	867.068	873.942	869.902	1340.4	1323.4	1306.5	1289.7
x1 = 0.7126	898.662	877.961	890.382	886.205	1339.7	1322.6	1305.7	1288.8
x1 = 0.7903	912.569	908.335	904.076	899.757	1340.9	1323.9	1306.9	1290
x1 = 0.9202	942.675	938.234	933.772	929.291	1349.3	1332.2	1315	1298

COCCO [2-methoxyethan-1-ol] + CCCCCCO
Conditions	mass density, 293.15 K [kg/m3]	mass density, 298.15 K [kg/m3]	mass density, 303.15 K [kg/m3]	mass density, 308.15 K [kg/m3]	speed of sound, 293.15 K [m/s]	speed of sound, 298.15 K [m/s]	speed of sound, 303.15 K [m/s]	speed of sound, 308.15 K [m/s]
x1 = 0.0538	822.792	819.173	815.536	811.869	1319.2	1302.3	1285.5	1268.9
x1 = 0.1042	828.127	824.464	820.781	817.068	1318.3	1301.4	1284.6	1267.9
x1 = 0.1509	831.771	828.075	824.358	820.611	1317.7	1300.8	1284	1267.4
x1 = 0.2055	837.788	834.043	830.27	826.473	1317.1	1300.2	1283.4	1266.8
x1 = 0.2405	841.087	837.314	833.515	829.687	1316.7	1299.8	1283.1	1266.4
x1 = 0.2987	847.639	843.81	839.961	836.084	1316.3	1299.5	1282.7	–
x1 = 0.4088	860.712	856.785	852.828	848.853	1317.3	1300.5	1283.6	1266.9
x1 = 0.5134	874.132	870.1	866.048	861.965	1318.6	1301.7	1284.8	1268.1
x1 = 0.5991	886.614	882.495	878.355	874.185	1321.2	1304.2	1287.3	1270.6
x1 = 0.6915	901.59	897.37	893.13	888.857	1325.9	1308.8	1291.9	1275
x1 = 0.805	922.045	917.699	913.334	908.936	1334.2	1317.1	1300.1	1283.2
x1 = 0.9039	942.54	938.079	933.591	929.076	1345	1327.9	1310.8	1293.7
